Reference: article PMC9854762, “Antibiofilm and Anti-Quorum-Sensing Activities of Novel Pyrazole and Pyrazolo[1,5-a]pyrimidine Derivatives as Carbonic Anhydrase I and II Inhibitors: Design, Synthesis, Radiosterilization, and Molecular Docking Studies” (Antibiotics, 2023)
Values after ≈ are worked out from the molar mass of the structure shown. Values joined by “and” are separate entries in the source; they are usually repeats but may differ in a detail not shown here. Equal entries are not always repeated.

Tests used:
S. aureus DH-432 = assay: Broth microdilution MIC/MBC; type: cell-based, Staphylococcus aureus; conditions: for MIC: Staphylococcus aureus, DH432, 24 h, read-out: MIC (Mean ± SEM); for MBC/MIC: value in brackets
Procedure: (§1) The broth microdilution method was taken as a basis to detect the MICs of pyrazole compounds against tested clinical isolates, according to the Clinical Laboratory and Standards Institute guidelines. The broth cultures were used to prepare the bacterial inoculums, and the suspensions were adjusted to the standard 0.5 McFarland turbidity. Stock solutions of the synthesized pyrazoles were prepared in pure DMSO and further serially diluted with TS broth in the concentration range from 128 µg/mL to 0.0625 µg/mL. A well containing noninoculated TS broth, free of any antimicrobial agents, was also included to ensure the medium sterility, while Erythromycin and Amikacin served as positive controls. Bacterial growth was determined by adding 20 µL of 0.5% TTC (2,3,5-triphenyltetrazolium chloride) aqueous solution. […] All experiments were repeated three times. The bactericidal effect from each concentration of the pyrazole and pyrazolo[1,5-a]pyrimidine derivatives showing growth inhibition was further studied. For this study, a loopful of 5 µL was taken from each no-visible growth tube and streaked onto plates of TS agar.

A. baumannii DH-243 = assay: Broth microdilution MIC/MBC; type: cell-based, Acinetobacter baumannii; conditions: for MIC: Acinetobacter baumannii, DH243, 24 h, read-out: MIC (Mean ± SEM); for MBC/MIC: value in brackets
Procedure: as §1

P. aeruginosa biofilm = assay: Crystal violet biofilm inhibition assay; type: cell-based; conditions: compounds at their MICs, crystal violet OD570
Procedure: (§2) The microtiter plate method was used to evaluate the active pyrazoles’ inhibitory activities on the strong biofilm-forming bacterial strains. This method was carried out as described, with some modifications. The antibiofilm effects of tested pyrazoles are presented as a percentage change from untreated bacterial controls. Overnight cultures of micro-organisms in the TSB medium with 10% (wt/vol) glucose were prepared as 10^8 CFU/mL, and then 100 µL was dispensed into each test well. Then, 100 µL of different concentrations of compounds, at their MICs, were dispensed into each well. The negative control contained only TSB, whereas the positive control contained cell cultures without compound addition. The supernatant was decanted and each well gently rinsed three times with 300 µL of sterile distilled water and discarded after incubation at 37 °C for 48 h. The plates were dried with air for 40 min. They were stained with 0.1% (wt/vol) crystal violet at room temperature for 30 min and washed three times with sterile distilled water. Afterward, the crystal violet was solubilized in 95% ethanol, and the absorbance was read in a microplate reader (MicroplatePhotometer and Multiskan FC) at 570 nm. This test was performed in triplicate, and the mean was taken as an average of three readings. The percentage of biofilm inhibition was calculated according to Equation (1):(1) Biofilm eradication %=OD positivecontrol−OD sample /OD positive control×100

S. aureus biofilm = assay: Crystal violet biofilm inhibition assay; type: cell-based; conditions: compounds at their MICs, crystal violet OD570
Procedure: as §2

P. aeruginosa = assay: Anti-QS activity via signal inhibition, CV026 as indicator; type: cell-based; conditions: P. aeruginosa 10^6 CFU/mL; sub-MICs; control 11.2 mm
Procedure: The anti-QS potential of the tested compounds was explored as described. Briefly, an overnight bacterial suspension of the indicator organism C. violaceum CV026 was prepared in a concentration of 10^6 CFU/mL, and an aliquot of 200 µL was seeded in 5 mm of Soft Top agar (1.3 g agar, 2.0 g tryptone, 1.0 g NaCl, and 200 mL deionized water), supplemented with 20 µL of 0.25 µg/mL C6-HSL (N-hexanoyl-L-homoserine lactone), added as an exogenous AHL source. Wells were cut in the center of the plate after incubation for 30 min and then filled with 50 µL of sub-MICs of each most-active pyrazole hybrid. DMSO was used as a negative control. The plates were incubated at 28 °C for 48 h. Inhibition of violacein production by the indicator strain around the well, indicated by the presence of a white circle surrounded by a purple halo, was considered as positive for QS interference. For further investigation to determine the anti-QS activity for the pyrazole against the biofilm-forming bacterial isolates, an in vitro screening was performed. This was carried out by inoculation of 200 µL from an O/N CV026 culture onto plates of Soft Top agar. Wells of 8 mm diameter were separately made and filled with 90 µL of each biofilm-forming bacterial isolate (10^6 CFU/mL), plus 10 µL of each active pyrazole derivative (sub-MICs). Wells containing the bacterial isolates without treatment were used as controls. The signal diffusion zone diameter produced during the bacterial growth was measured in the presence of pyrazole and pyrazolo[1,5-a]pyrimidine derivatives and compared with the zone diameter of the violacein production by CV026.

Gram-positive isolates = assay: Broth microdilution MIC/MBC, summary; type: cell-based
Procedure: as §1

Gram-negative isolates = assay: Broth microdilution MIC/MBC, summary; type: cell-based
Procedure: as §1

tested isolates = assay: Broth microdilution MIC/MBC, summary; type: cell-based
Procedure: as §1

Compound	MIC (S. aureus DH-432) [mg/L]	MBC/MIC (S. aureus DH-432)	MIC (A. baumannii DH-243) [mg/L]	MBC/MIC (A. baumannii DH-243)	Biofilm Eradication % (P. aeruginosa biofilm)	Biofilm Eradication % (S. aureus biofilm)	QS signal diffusion zone (P. aeruginosa) [mm]	MBC (Gram-positive isolates) [mg/L]	MIC (Gram-positive isolates) [mg/L]	MIC (Gram-negative isolates) [mg/L]	MIC (tested isolates; S. aureus, E. faecalis, and P. aeruginosa) [mg/L]	MIC (Mean ± SEM) (S. aureus DH-432; 24 h) [mg/L]	MIC (tested isolates; other isolates (not S. aureus, E. coli)) [mg/L]
CCOC(=O)c1ccc(N=Nc2c(N)nn3c(N)c(C#N)c(-c4ccc(N(C)C)cc4)nc23)cc1 [Compound 9a, Ethyl-4-((2,7-diamino-6-cyano-5-(4-(dimethylamino)phenyl)pyrazolo[1,5-a]pyrimidin-3-yl)diazenyl)benzoate]	0.25 ± 0.2 (≈ 0.532 µM)	0.5	0.375 ± 0.2 (≈ 0.799 µM)	0.5	66% and 66 ± 0.9%	72% and 72 ± 0.81%	9.5	0.125 to 0.25 (≈ 0.266 to 0.532 µM)	0.25 to 0.5 (≈ 0.532 to 1.06 µM)				
CCOC(=O)c1ccc(N=Nc2c(N)nn3c(O)c(C#N)c(-c4ccc(N(C)C)cc4)nc23)cc1 [Compound 10a, Ethyl-4-((2-amino-6-cyano-5-(4-(dimethylamino)phenyl)-7-hydroxypyrazolo[1,5-a]pyrimidin-3-yl)diazenyl)benzoate]	0.125 ± 0.2 (≈ 0.266 µM)	0.5	0.375 ± 0.4 (≈ 0.797 µM)	0.5	80% and > 80%		8.0						
CCOC(=O)c1ccc(N=Nc2c(N)n[nH]c2N)cc1 [Compound 3a, Ethyl 4-((3,5-diamino-1H-pyrazol-4-yl)diazenyl)benzoate]	0.125 ± 0.3 (≈ 0.456 µM)	0.5	0.25 ± 0.2 (≈ 0.911 µM)	0.5	88% and > 80%		7.8		0.125 (≈ 0.456 µM)	0.062 to 0.25 (≈ 0.226 to 0.911 µM)			
CCOC(=O)c1ccc(N=Nc2c(N)nn3c(C)cc(C)nc23)cc1 [Compound 6, ethyl-4-((2-amino-5,7-dimethylpyrazolo[1,5-a]pyrimidin-3-yl)diazenyl)benzoate]	0.187 ± 0.1 (≈ 0.553 µM)	0.5	0.5 ± 0.1 (≈ 1.48 µM)	0.5	76% and 76 ± 0.52%	80% and 80 ± 0.63%	8.7				0.187 to 0.375 (≈ 0.553 to 1.11 µM)		
CCOC(=O)c1ccc(N=Nc2c(N=Cc3ccc(N(C)C)cc3)n[nH]c2N)cc1 [Compound 5a, Ethyl 4-((5-amino-3-((4-(dimethylamino)benzylidene)amino)-1H-pyrazol-4-yl)diazenyl)benzoate]	0.25 (≈ 0.617 µM)	0.5	0.5 ± 0.3 (≈ 1.23 µM)	0.5	63% and 63 ± 0.52%	69% and 69 ± 0.24%	9.8					0.25 ± 0.2 (≈ 0.617 µM)	0.5 (≈ 1.23 µM)
